Measurements published in patent EP0761658A1, “Azole-phenyl urea derivatives as ACAT inhibitors and their production” (NIHON NOHYAKU CO., LTD., priority 1995, dated 1997).

Experiments:
[1] = system: acyl-CoA:cholesterol acyltransferase (ACAT); experiment: Inhibitory activity on acyl-CoA:cholesterol acyltransferase (ACAT), microsomal fraction of intestinal mucosa, [1-14C]oleyl-CoA incorporation into cholesterol esters; format: biochemical, white rabbit; settings: compound concentration 0.01 µm; rabbit intestinal mucosa microsomes
Experimental: The enzyme used in the test was prepared according to the method of Heider et al. [J. Lipid Res. 24, 1127 (1983)]. A white rabbit was killed by blood-letting under anesthesia, after which its intestinal mucosa was collected and then homogenized, and microsomal fraction was obtained by stepwise centrifugation. The microsomal fraction was suspended in 0.154 M phosphate buffer (pH 7.4) and stored at -80°C until use.
ACAT activity was determined by a modification of the method of Helgerud et al. [J. Lipid Res. 22, 271 (1981)] by measuring radioactivity incorporated into cholesterol esters from [1-^14C]oleyl-CoA, as an indication. As to the ACAT-inhibitory activity of each compound to be tested, the inhibition rate was calculated by the following equation. Inhibition rate (%) =([ACAT activity of control group which was given solvent]-[ACAT activity of group treated with compound to be tested])/([ACAT activity of control group which was given solvent])x 100 [formula]

[2] = system: rats fed on a high-cholesterol diet; experiment: Serum cholesterol lowering activity in rats fed on a high-cholesterol diet; format: in vivo, Male Sprague-Dawley rats; settings: Rattus norvegicus, 96 h; total serum cholesterol; 30 mg per kg of body weight per day for 4 days, suspended in 0.5% carboxymethyl cellulose; blood 24 hours after last administration; read-out: Reduction rate (%)
Experimental: Male Sprague-Dawley rats of 6-week-old were divided into three groups. The first group (normal group) was fed an ordinary diet for 4 days. The second group (control group) was fed a high cholesterol diet (containing 1.0% cholesterol, 1.0% cholic acid and 8.5% coconut oil) for 4 days. The third group (treated group) was fed a high cholesterol diet and was treated with a compound for 4 days.
Simultaneously with the beginning of the above feeding, the compound was suspended in a 0.5% carboxymethyl cellulose solution and administered to the treated group, in a dose of 30 mg (in terms of the compound) per kg of body weight per day for 4 days. A 0.5% carboxymethyl cellulose solution was also administered to the normal group and the control group in the same manner as above.
After 24 hours of the last administration, blood was collected and the cholesterol concentration in serum was measured by an enzymatic method. The reduction rate of the total serum cholesterol concentration was calculated from values obtained for the three groups by the following equation. Choresterol reduction rate (%) =((A) - (B))/((A) - (C))x 100 [formula] wherein A: the serum cholesterol concentration of the control group. B: the serum cholesterol concentration of the treated group. C: the serum cholesterol concentration of the normal group.

## Cc1ccccc1-c1nc(-c2ccccc2)oc1NC(=O)Nc1c(C(C)C)cccc1C(C)C [Compound 33, N-(2,6-Diisopropylphenyl)-N'-[4-(2-methylphenyl)-2-phenyloxazol-5-yl]urea]
[1]
  Inhibition rate %: 62.0%
[2]
  inhibition in vivo at 30 mg/kg: 73.2%
